Results as given in paper PMC7699745, “The Search for New Anticonvulsants in a Group of (2,5-Dioxopyrrolidin-1-yl)(phenyl)Acetamides with Hybrid Structure—Synthesis and In Vivo/In Vitro Studies” (International Journal of Molecular Sciences, 2020).

Target: T1, Cav1.2 (h) calcium ion channel (Homo sapiens, UniProt Q13936)
T1 construct: host or cells: HEK-293
Experiment: Cav1.2 (h) cell-based antagonist calcium flux assay
Method: Binding studies were carried out commercially in Eurofines Laboratories (Poitiers, France). The functional assays were performed in Eurofins Panlabs Discovery Services Taiwan, Ltd. (New Taipei City, Taiwan). All procedures are described elsewhere (for details, see Table S4 in Supplementary Materials).
Binding studies were carried out commercially in Eurofines Laboratories (Poitiers, France). The
functional assays were performed in Eurofins Panlabs Discovery Services Taiwan, Ltd. (New Taipei
City, Taiwan). All procedures are described elsewhere (Table S4).
Table S4. In vitro binding and functional assays. […]
Cav1.2 (h) calcium ion channel cell based antagonist calcium flux assay 16,17

T1 sequence (Q13936 whole entry): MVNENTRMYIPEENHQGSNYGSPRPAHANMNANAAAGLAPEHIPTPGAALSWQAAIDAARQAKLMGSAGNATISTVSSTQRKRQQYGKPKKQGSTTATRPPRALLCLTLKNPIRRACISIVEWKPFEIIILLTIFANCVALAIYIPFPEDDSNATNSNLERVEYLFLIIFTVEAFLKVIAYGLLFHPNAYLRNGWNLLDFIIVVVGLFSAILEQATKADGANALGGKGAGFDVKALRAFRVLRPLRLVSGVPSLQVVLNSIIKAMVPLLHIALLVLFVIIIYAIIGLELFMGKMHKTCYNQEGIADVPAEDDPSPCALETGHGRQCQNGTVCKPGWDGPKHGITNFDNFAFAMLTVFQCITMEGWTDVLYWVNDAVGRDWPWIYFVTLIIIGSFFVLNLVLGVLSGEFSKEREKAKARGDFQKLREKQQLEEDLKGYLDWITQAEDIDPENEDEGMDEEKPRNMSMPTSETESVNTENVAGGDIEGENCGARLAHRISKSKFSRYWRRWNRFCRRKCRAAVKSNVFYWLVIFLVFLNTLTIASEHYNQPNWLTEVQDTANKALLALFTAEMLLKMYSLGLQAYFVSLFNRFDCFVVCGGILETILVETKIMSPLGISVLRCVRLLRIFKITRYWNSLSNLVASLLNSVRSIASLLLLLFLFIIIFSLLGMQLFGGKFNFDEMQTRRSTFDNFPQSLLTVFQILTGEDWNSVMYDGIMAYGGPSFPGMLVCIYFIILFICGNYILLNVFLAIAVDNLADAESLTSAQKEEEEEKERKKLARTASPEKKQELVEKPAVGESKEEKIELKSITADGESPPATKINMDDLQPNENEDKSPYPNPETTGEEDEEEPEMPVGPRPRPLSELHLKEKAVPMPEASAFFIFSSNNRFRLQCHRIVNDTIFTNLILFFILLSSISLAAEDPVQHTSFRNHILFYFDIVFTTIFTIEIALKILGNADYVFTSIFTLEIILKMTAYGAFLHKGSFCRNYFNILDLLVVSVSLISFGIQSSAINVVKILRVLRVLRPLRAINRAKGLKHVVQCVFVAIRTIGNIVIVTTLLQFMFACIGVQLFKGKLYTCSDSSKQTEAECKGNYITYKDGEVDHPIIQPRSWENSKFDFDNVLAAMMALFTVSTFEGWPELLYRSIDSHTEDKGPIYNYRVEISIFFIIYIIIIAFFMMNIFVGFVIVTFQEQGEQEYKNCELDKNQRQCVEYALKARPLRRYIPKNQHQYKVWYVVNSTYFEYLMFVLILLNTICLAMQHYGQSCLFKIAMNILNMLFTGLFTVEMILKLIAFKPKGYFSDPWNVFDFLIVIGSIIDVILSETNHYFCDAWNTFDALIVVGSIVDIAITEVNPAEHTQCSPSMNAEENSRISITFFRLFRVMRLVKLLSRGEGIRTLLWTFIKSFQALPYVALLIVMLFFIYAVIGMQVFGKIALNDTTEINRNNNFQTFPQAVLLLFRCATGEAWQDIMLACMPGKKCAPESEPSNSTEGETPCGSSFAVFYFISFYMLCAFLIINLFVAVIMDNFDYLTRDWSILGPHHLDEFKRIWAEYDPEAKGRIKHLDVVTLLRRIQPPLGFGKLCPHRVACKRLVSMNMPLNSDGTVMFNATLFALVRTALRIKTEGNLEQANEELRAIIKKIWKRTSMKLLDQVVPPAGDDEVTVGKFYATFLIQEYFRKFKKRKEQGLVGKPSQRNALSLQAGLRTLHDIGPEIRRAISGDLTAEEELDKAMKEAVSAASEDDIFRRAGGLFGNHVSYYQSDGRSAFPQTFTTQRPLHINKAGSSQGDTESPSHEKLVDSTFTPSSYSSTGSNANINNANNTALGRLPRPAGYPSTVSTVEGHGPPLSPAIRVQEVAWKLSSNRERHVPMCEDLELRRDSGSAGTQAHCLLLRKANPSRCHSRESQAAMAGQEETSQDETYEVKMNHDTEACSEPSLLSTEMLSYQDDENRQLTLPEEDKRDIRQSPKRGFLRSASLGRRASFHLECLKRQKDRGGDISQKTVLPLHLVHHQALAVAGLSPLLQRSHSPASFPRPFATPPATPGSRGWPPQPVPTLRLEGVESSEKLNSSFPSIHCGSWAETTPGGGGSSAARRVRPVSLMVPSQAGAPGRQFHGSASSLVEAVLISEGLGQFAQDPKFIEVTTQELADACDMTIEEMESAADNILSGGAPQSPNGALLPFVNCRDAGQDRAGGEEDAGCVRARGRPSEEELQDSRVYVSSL
T1 sequence (Q08289 whole entry partner): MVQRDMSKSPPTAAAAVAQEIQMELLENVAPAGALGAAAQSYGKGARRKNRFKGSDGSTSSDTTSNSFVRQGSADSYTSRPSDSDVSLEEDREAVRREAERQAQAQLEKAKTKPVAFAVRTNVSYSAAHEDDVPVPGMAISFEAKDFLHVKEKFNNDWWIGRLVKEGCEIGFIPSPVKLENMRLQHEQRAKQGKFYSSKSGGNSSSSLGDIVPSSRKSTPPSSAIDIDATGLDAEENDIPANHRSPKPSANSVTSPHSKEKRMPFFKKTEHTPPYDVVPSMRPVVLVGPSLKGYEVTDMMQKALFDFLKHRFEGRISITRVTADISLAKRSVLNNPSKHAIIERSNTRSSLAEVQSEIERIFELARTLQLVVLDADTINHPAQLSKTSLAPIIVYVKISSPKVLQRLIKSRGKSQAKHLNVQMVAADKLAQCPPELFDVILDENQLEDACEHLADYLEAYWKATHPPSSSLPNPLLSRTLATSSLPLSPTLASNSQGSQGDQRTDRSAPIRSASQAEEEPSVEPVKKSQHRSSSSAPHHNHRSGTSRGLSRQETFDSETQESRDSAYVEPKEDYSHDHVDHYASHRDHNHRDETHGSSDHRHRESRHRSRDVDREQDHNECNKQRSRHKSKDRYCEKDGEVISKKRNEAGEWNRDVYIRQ
T1 sequence (P54289 25-956 partner limits assumed): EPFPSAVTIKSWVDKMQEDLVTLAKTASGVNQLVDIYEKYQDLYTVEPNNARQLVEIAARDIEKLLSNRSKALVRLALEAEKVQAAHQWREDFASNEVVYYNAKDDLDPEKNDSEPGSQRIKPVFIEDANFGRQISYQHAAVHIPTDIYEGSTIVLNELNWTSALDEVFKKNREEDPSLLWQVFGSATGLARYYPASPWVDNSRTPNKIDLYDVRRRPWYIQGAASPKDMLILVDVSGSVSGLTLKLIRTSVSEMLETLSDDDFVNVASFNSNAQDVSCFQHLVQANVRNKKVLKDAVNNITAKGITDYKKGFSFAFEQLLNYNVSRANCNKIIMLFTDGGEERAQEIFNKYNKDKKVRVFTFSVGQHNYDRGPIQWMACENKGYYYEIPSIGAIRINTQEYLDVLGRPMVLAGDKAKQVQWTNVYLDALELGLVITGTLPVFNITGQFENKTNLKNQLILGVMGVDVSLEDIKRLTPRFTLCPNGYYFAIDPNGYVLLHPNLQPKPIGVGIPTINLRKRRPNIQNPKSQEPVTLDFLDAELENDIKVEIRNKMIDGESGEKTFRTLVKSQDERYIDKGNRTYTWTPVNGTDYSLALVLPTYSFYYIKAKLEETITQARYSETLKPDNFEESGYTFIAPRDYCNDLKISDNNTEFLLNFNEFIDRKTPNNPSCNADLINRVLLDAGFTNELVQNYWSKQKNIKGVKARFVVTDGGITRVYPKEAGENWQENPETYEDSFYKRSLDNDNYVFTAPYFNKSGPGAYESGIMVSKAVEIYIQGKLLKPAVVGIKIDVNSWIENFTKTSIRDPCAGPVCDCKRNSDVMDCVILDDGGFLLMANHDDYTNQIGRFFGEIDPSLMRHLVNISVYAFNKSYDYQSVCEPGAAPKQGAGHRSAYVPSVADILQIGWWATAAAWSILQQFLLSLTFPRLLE
T1 sequence (P54289 957-1103 partner limits assumed): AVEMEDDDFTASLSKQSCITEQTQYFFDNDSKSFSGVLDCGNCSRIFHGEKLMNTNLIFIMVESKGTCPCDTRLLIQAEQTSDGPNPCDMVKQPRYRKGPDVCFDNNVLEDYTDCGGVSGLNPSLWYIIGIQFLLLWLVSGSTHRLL

O=C(NCCc1cccc(OC(F)(F)F)c1)C(c1ccccc1)N1C(=O)CCC1=O (centres unmarked) [Compound 30, 2-(2,5-Dioxopyrrolidin-1-yl)-2-phenyl-N-(3-(trifluoromethoxy)phenethyl)acetamide]
antagonist properties in cell-based flux studies (Cav1.2) (10 µM): moderate antagonist properties
inhibition at 10 µM (HEK293, human recombinant (HEK-293 cells), read-out: % Inhibition of Control Agonist Response, Cav1.2 (h) calcium flux): 49%
